# Key:
# [1] = molecular target: T1, Proteinase-activated receptor 1 (Homo sapiens, UniProt P25116)
# T1 sequence (P25116 whole entry): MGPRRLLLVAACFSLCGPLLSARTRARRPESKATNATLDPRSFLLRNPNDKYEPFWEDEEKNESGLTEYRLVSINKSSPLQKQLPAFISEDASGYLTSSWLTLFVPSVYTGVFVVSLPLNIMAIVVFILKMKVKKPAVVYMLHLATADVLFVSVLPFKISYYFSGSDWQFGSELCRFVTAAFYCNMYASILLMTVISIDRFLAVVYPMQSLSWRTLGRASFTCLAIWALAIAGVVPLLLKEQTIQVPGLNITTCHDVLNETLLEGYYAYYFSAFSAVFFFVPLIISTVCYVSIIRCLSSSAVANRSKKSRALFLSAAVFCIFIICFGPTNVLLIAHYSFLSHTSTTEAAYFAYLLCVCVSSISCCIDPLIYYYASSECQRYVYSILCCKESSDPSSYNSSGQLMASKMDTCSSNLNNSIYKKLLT
# Description: (§1) In vitro inhibitory concentration against human protease activated receptor 1 using [3H]-haTRAP as radioligand
# [2] = Maximum plasma concentration after oral administration to rats in 20% hydroxypropyl-beta-cyclodextrin after 4 hours; conditions: rat
# [3] = Area under curve after oral administration to rats in 20% hydroxypropyl-beta-cyclodextrin after 4 hours; conditions: rat, in vivo
# [4] = molecular target: T1, Proteinase-activated receptor 1; remark: listed apart in the source
# Description: as §1
# [5] = Bioavailability of compound after oral administration in monkey; conditions: cercopithecidae, in vivo
# [6] = Bioavailability of compound after oral administration in rat at a dose of 10 mg/kg; assay type: ADME, organism-based; conditions: in vivo
# [7] = Maximum plasma concentration upon oral administration in rat
# [8] = Half life after intravenous administration in monkey; assay type: ADME, organism-based; conditions: cercopithecidae, in vivo
# [9] = Half life upon intravenous administration in rat; assay type: ADME, organism-based; conditions: in vivo
# [10] = Bioavailability of compound upon oral administration in rat; assay type: ADME, organism-based; conditions: in vivo
# [11] = Half life of compound upon iv administration in rat; assay type: ADME, organism-based; conditions: in vivo
Compound,IC50 [1] [nM],other results
COCc1cccc(/C=C/[C@H]2[C@@H]3CCCC[C@H]3C[C@H]3C(=O)O[C@H](C)[C@@H]23)n1 (racemic),850,–
C[C@H]1OC(=O)[C@@H]2C[C@@H]3CCCC[C@H]3[C@H](/C=C/c3ccc(-c4ccccc4F)cn3)[C@H]12,22,Cmax [2]: 1080 nM; AUC at 4 h [3]: 2.47 µM·h
CCOC(=O)c1ccccc1-c1ccc(/C=C/[C@H]2[C@@H]3CCCC[C@H]3C[C@H]3C(=O)O[C@H](C)[C@@H]23)nc1,44,–
COc1cccc(/C=C/[C@H]2[C@@H]3CCCC[C@H]3C[C@H]3C(=O)O[C@H](C)[C@@H]23)n1 (racemic),–,IC50 [4]: Not Active
Cc1ccnc(/C=C/[C@H]2[C@@H]3CCCC[C@H]3C[C@H]3C(=O)O[C@H](C)[C@@H]23)c1 (racemic),2100,–
CCCCc1cccc(/C=C/[C@H]2[C@@H]3CCCC[C@H]3C[C@H]3C(=O)O[C@H](C)[C@@H]23)n1 (racemic),143,–
COc1cccc(-c2ccc(/C=C/[C@H]3[C@@H]4CCCC[C@H]4C[C@H]4C(=O)O[C@H](C)[C@@H]34)nc2)c1,28,Cmax [2]: 20 nM; AUC at 4 h [3]: 0.012 µM·h
Cc1cccnc1/C=C/[C@H]1[C@@H]2CCCC[C@H]2C[C@H]2C(=O)O[C@H](C)[C@@H]12 (racemic),> 5000,–
C[C@H]1OC(=O)[C@@H]2C[C@@H]3CCCC[C@H]3[C@H](/C=C/c3ccccn3)[C@H]12 (racemic),4000,–
CC(C)c1cccc(/C=C/[C@H]2[C@@H]3CCCC[C@H]3C[C@H]3C(=O)O[C@H](C)[C@@H]23)n1 (racemic),725,–
C[C@H]1OC(=O)[C@@H]2C[C@@H]3CCCC[C@H]3[C@H](/C=C/c3ccc(-c4cccc(C(F)(F)F)c4)cn3)[C@H]12,–,bioavailability [5]: 50%; bioavailability [6]: 30%; Cmax [2]: 2300 nM; Cmax [7]: 1160 nM; half-life [8]: 12.4 h; AUC at 4 h [3]: 6.12 µM·h; half-life [9]: 3.2 h
CCCc1cccc(/C=C/[C@H]2[C@@H]3CCCC[C@H]3C[C@H]3C(=O)O[C@H](C)[C@@H]23)n1 (racemic),250,–
C[C@H]1OC(=O)[C@@H]2C[C@@H]3CCCC[C@H]3[C@H](/C=C/c3ccc(-c4cccc(F)c4)cn3)[C@H]12,35,Cmax [2]: 1520 nM; AUC at 4 h [3]: 3.55 µM·h
C=Cc1cccc(/C=C/[C@H]2[C@@H]3CCCC[C@H]3C[C@H]3C(=O)O[C@H](C)[C@@H]23)n1 (racemic),150,–
CCCCCCc1cccc(/C=C/[C@H]2[C@@H]3CCCC[C@H]3C[C@H]3C(=O)O[C@H](C)[C@@H]23)n1 (racemic),3500,–
Cc1ccccc1-c1ccc(/C=C/[C@H]2[C@@H]3CCCC[C@H]3C[C@H]3C(=O)O[C@H](C)[C@@H]23)nc1,–,Cmax [2]: 1220 nM; AUC at 4 h [3]: 2.81 µM·h
C[C@H]1OC(=O)[C@@H]2C[C@@H]3CCCC[C@H]3[C@H](/C=C/c3ccc(-c4ccc(F)cc4)cn3)[C@H]12 (racemic),467,–
C[C@H]1OC(=O)[C@@H]2C[C@@H]3CCCC[C@H]3[C@H](/C=C/c3ccc(OCc4ccccc4)cn3)[C@H]12 (racemic),19,–
Cc1ccc(-c2ccc(/C=C/[C@H]3[C@@H]4CCCC[C@H]4C[C@H]4C(=O)O[C@H](C)[C@@H]34)nc2)cc1 (racemic),325,–
C[C@H]1OC(=O)[C@@H]2C[C@@H]3CCCC[C@H]3[C@H](/C=C/c3ccc(-c4cccc(Cl)c4)cn3)[C@H]12,10,Cmax [2]: 1460 nM; AUC at 4 h [3]: 4.11 µM·h
CC(C)Cc1cccc(/C=C/[C@H]2[C@@H]3CCCC[C@H]3C[C@H]3C(=O)O[C@H](C)[C@@H]23)n1 (racemic),550,–

Compound,IC50 [1] [nM],other results
COc1ccc(/C=C/[C@H]2[C@@H]3CCCC[C@H]3C[C@H]3C(=O)O[C@H](C)[C@@H]23)nc1 (racemic),325,–
Cc1cccc(-c2ccc(/C=C/[C@H]3[C@@H]4CCCC[C@H]4C[C@H]4C(=O)O[C@H](C)[C@@H]34)nc2)c1,13,Cmax [2]: 380 nM; AUC at 4 h [3]: 0.331 µM·h
COc1ccccc1-c1ccc(/C=C/[C@H]2[C@@H]3CCCC[C@H]3C[C@H]3C(=O)O[C@H](C)[C@@H]23)nc1,11,Cmax [2]: 419 nM; AUC at 4 h [3]: 0.413 µM·h
C[C@H]1OC(=O)[C@@H]2C[C@@H]3CCCC[C@H]3[C@H](/C=C/c3ccc(-c4cccc(Br)c4)cn3)[C@H]12,25,–
C[C@H]1OC(=O)[C@@H]2C[C@@H]3CCCC[C@H]3[C@H](/C=C/c3cccc(CO)n3)[C@H]12 (racemic),1500,–
C[C@H]1OC(=O)[C@@H]2C[C@@H]3CCCC[C@H]3[C@H](/C=C/c3cccc(C4CC4)n3)[C@H]12 (racemic),210,–
C[C@H]1OC(=O)[C@@H]2C[C@@H]3CCCC[C@H]3[C@H](/C=C/c3ccc(-c4ccccc4Cl)cn3)[C@H]12,26,Cmax [2]: 1780 nM; AUC at 4 h [3]: 4.29 µM·h
C[C@H]1OC(=O)[C@@H]2C[C@@H]3CCCC[C@H]3[C@H](/C=C/c3ccc(-c4ccc(C(F)(F)F)cc4)cn3)[C@H]12 (racemic),> 300,–
COc1ccc(-c2ccc(/C=C/[C@H]3[C@@H]4CCCC[C@H]4C[C@H]4C(=O)O[C@H](C)[C@@H]34)nc2)cc1 (racemic),204,–
C[C@H]1OC(=O)[C@@H]2C[C@@H]3CCCC[C@H]3[C@H](/C=C/c3ccc(-c4cccc(C#N)c4)cn3)[C@H]12,25,–
CC(C)c1cccc(-c2ccc(/C=C/[C@H]3[C@@H]4CCCC[C@H]4C[C@H]4C(=O)O[C@H](C)[C@@H]34)nc2)c1,19,Cmax [2]: 289 nM; AUC at 4 h [3]: 0.258 µM·h
C[C@H]1OC(=O)[C@@H]2C[C@@H]3CCCC[C@H]3[C@H](/C=C/c3ccc(-c4ccccc4C(F)(F)F)cn3)[C@H]12,46,Cmax [2]: 1000 nM; AUC at 4 h [3]: 2.35 µM·h
CCc1cccc(/C=C/[C@H]2[C@@H]3CCCC[C@H]3C[C@H]3C(=O)O[C@H](C)[C@@H]23)n1,–,bioavailability [10]: < 3%; half-life [11]: < 1 h
Cc1ccc(/C=C/[C@H]2[C@@H]3CCCC[C@H]3C[C@H]3C(=O)O[C@H](C)[C@@H]23)nc1 (racemic),1100,–
C[C@H]1OC(=O)[C@@H]2C[C@@H]3CCCC[C@H]3[C@H](/C=C/c3cccc(Cc4ccccc4)n3)[C@H]12 (racemic),900,–
C[C@H]1OC(=O)[C@@H]2C[C@@H]3CCCC[C@H]3[C@H](/C=C/c3ccc(-c4ccc(Cl)cc4)cn3)[C@H]12 (racemic),1000,–
C[C@H]1OC(=O)[C@@H]2C[C@@H]3CCCC[C@H]3[C@H](/C=C/c3cccc(-c4ccccc4)n3)[C@H]12 (racemic),–,IC50 [4]: Not Active
C[C@H]1OC(=O)[C@@H]2C[C@@H]3CCCC[C@H]3[C@H](/C=C/c3ccc(Cc4ccccc4)cn3)[C@H]12 (racemic),3680,–
C[C@H]1OC(=O)[C@@H]2C[C@@H]3CCCC[C@H]3[C@H](/C=C/c3ccc(-c4ccccc4)cn3)[C@H]12,27,Cmax [2]: 453 nM; AUC at 4 h [3]: 0.917 µM·h
CNc1cccc(/C=C/[C@H]2[C@@H]3CCCC[C@H]3C[C@H]3C(=O)O[C@H](C)[C@@H]23)n1 (racemic),1250,–
C[C@H]1OC(=O)[C@@H]2C[C@@H]3CCCC[C@H]3[C@H](/C=C/c3ccc(-c4cccc(S(N)(=O)=O)c4)cn3)[C@H]12,100,–

# Source: ChEMBL document CHEMBL1141080, “Discovery of potent orally active thrombin receptor (protease activated receptor 1) antagonists as novel antithrombotic agents” (J Med Chem, 2005)
